This is an account of results in patent publication US20230242526A1 (Zentaur Therapeutics International Limited, priority 2020, published 2023).

Data set [1] in a line: Pharmacokinetic profiling in mouse (i.v. and i.g.). The data set is classed as in vivo, male ICR mice. The following applies: male, ICR, plasma; for Vd: read-out: Vdss; for bioavailability: calculated by using the AUC0-t, read-out: F (bioavailability). The procedure: (1). Kolliphor® HS 15 (formerly regarded as Solutol® HS 15) a non-ionic surfactant, was used as a solubilizer in preparing the parenteral formulations; (2). DMA (N,N-dimethylacetamide); (3). saline; and (4). Tween 80; (5) acetyl nitrile. […] To a glass flask was added 6.0 μmol of the test compound, and 0.265 mL of DMA. The glass flask was vortexed to allow the complete dissolution of the solid. Then 0.265 mL of 30% Solution HS 15 was added to the test compound solution in DMA and was vortexed to allow homogeneous mixing. Lastly, 2.12 mL of saline was added to the mixture in the glass flask. The flask was vortexed to allow homogeneous mixing. […] A clear liquid test sample iv formulation was obtained. An aliquot of 100 μL of the test sample iv formulation was placed into a 1.5 mL EP tube and was kept at 2-8° C. for future sample concentration quantification by HPLC. […] To a glass flask was added 27 μmol of the test compound and 4.047 mL of 0.5% MC with 01. % Tween 80. The flask and the mixture was vortexed followed by sonication for about 15 minutes to allow even distribution of the solids. A white suspension of the text sample was obtained. […] Ltd. Before receiving the test compound formulations, the animals were on fasting overnight. On the day of dosing, the animals were fed at 4h after the dosing. During the tests, the animals were free to drink water. Each test compound was tested in duplicate with different routes of administration: in one set of tests, mice received test compounds by iv injection route, and in the other set of tests, mice received the test compounds by IG administration. The schedules of the test for each mouse are illustrated in Table 5 below. [table] 100 μL blood sample was taken from the veins in animal eyelid. The whole blood sample was placed in anticoagulation tubes treated with EDTA-K2. The whole blood sample was centrifuged at 1500 g for 10 min. The plasma at the upper level was collected into test tubes. An aliquot of 10 μL of sample was added with 100 μL ACN which contains of Verapamil, 5 ng/mL, Glibenclamide, 50 ng/mL, Tolbutamide, 200 ng/mL and Diclofenac, 200 ng mL-1 for protein precipitation. The mixture was vortexed for 1 min, then centrifuged at 13000 rpm for 8 min. Then 70 μL of supernatant was added with 70 μL water, then vortexed for 10 min. An aliquot of 5 μL of the mixture was injected into the LC-MS/MS system. LC-MS/MS (API 4000: LC-MS-MS-001), column: […] Sample injection volume is 5 μL. Flow rate is 0.8 mL/min. The detection wavelength is set at 254 nm.

A short description of data set [2]: in vitro. The following applies: mouse, microsomes, pH 7.4, t1/2 mouse. The procedure: (§1) Human liver microsomes (cat. No. 452161), mouse liver microsomes (cat. No. 452701), were purchased from Corning.
(§2) Samples were analyzed using LC-MS/MS using a SCIEX API 4000 mass spectrometer coupled with Agilent HPLC analytical system. After separation on a ZORBAX XDB-C18 column (5 μm, 50×2.1 mm, column No. 50-282) using an acetonitrile-water gradient system, peaks were analyzed by mass spectroscopy (MS) using ESI ionization in Q1 and Q3 scan mode.
(§3) The LC and MS are all controlled by Analyst software.
(§4) The liver microsomes were incubated with 1.0 μM of the testing compound at 37° C. The incubation mixture contained 100 mM PBS buffer (pH=7.4), 3 mM MgCl2 and 1 mM NADPH. The concentration of liver microsome in the incubation mixture was 0.5 mg/mL for testing compound, and 0.2 mg/mL for MDZ and the total volume is 0.2 mL. […] Aliquots were withdrawn at time points of 0 min, 5 min and 20 min for MDZ. The reactions were terminated by transferring the aliquots to a methanol solution containing the internal standard […] for analytical quantification. The quenched samples were analyzed by LC-MS/MS. The incubations were carried out in duplicates. The metabolic stability of the testing compounds by the liver microsomes of human and mice is expressed as elimination half-life (t1/2). The results are shown as the means of duplicate determinations±SD.

Data set [3] in a line: Body weight in the HCC1806 xenograft study. In kind it is in vivo, BALB/c nude mice. The following applies: 30 mg/kg P.O. BID; for Body weight D0 / Body weight D3 / Body weight D7 / Body weight D10 / Body weight D14 / Body weight D17 / Body weight D21: group mean; for Body weight D0: day 0; for Body weight D3: day 3; for Body weight D7: day 7; for Body weight D10: day 10; for Body weight D14: day 14; for Body weight D17: day 17; for Body weight D21: day 21. The procedure:
When the average tumor volume reached 80-120 mm^3, 42 tumor-bearing mice were randomized into 7 groups (6 mice per group) according to tumor volume. The grouping day was defined as Day 0. Treatment was applied immediately after grouping animals on the same day.
The body weight of the testing animals were measured twice a week after grouping. Tumor volumes by the length and width of the tumor were measured by electric calipers and the tumor volume (V) was calculated as follows: V=(length×width^2)/2. The individual relative tumor volume (RTV) was calculated as follows: RTV=Vt/V0, where Vt was the volume on each day, and V0 was the volume at the beginning of the treatment.
Results were expressed as mean±S.E.M. Comparisons between two groups were made by corresponding test, p<0.05 were considered to be significant.

Data set [4] in a line: in vitro. The conditions noted are these: human, microsomes, pH 7.4, t1/2 human. Here is the method:
as §1, §2, §3, §4

In data set [1] (iv, i.v. 5 mg/kg), `[2H]C([2H])([2H])c1cc2cnc(NC3CCN(S(C)(=O)=O)CC3)nc2n([C@@H]2CCC[C@@]2(C)O)c1=O` [Comp. 37, (−)-8-((1R,2R)-2-hydroxy-2-methylcyclopentyl)-6-(methyl-d3)-2-((1-(methylsulfonyl)piperidin-4-yl)amino)pyrido[2,3-d]pyrimidin-7(8H)-one] gave an AUC(0-t) of 1290 ng·h/mL, a C0 of 7420 ng/mL, a clearance of 64.7 mL/min/kg and a half-life of 0.33 h. The Vd in data set [1] (iv, i.v. 5 mg/kg) is 0.703 L/kg. In data set [1] (po, i.g. 30 mg/kg), the AUC(0-t) amounted to 605 ng·h/mL, the concentration peaked (Cmax) at 522 ng/mL, the Tmax was found to be 0.25 h and the half-life was 1.72 h. In data set [1] (po, i.g. 30 mg/kg), the bioavailability is 7.8%. In the data set “in vitro [2]”, this molecule had a half-life at 1 μM of 1.2 h. In data set [3], the “Body weight D0” value was found to be 18.25 g, the “Body weight D3” value came to 18.23 g, the “Body weight D7” value was determined as 18.10 g and the “Body weight D10” value was 18.01 g. Further, in data set [3], the “Body weight D14” value was 18.80 g, the “Body weight D17” value came to 18.60 g and the “Body weight D21” value came out at 18.17 g. In addition, the half-life at 1 μM in the data set “in vitro [4]” was 28.9 h.
For `Cc1cc2cnc(NC3CCN(S(C)(=O)=O)CC3)nc2n([C@@H]2CCC[C@@]2(C)O)c1=O` [Comp. 4, (−)-8-(2-hydroxy-2-methylcyclopentyl)-6-methyl-2-((1-(methylsulfonyl)piperidin-4-yl)amino)pyrido[2,3-d]pyrimidin-7(8H)-one, reference compound], in data set [1] (iv, i.v. 5 mg/kg), the AUC(0-t) was found to be 967 ng·h/mL, the C0 was determined as 8300 ng/mL, the clearance turned out to be 86.1 mL/min/kg and the half-life is 0.195 h. In addition, the Vd in data set [1] (iv, i.v. 5 mg/kg) came to 0.611 L/kg. For the same molecule, in data set [1] (po, i.g. 30 mg/kg), the AUC(0-t) amounted to 245 ng·h/mL, the peak level (Cmax) was 211 ng/mL, the Tmax stood at 0.25 h and the half-life was 2.24 h. The bioavailability in data set [1] (po, i.g. 30 mg/kg) was 4.2%. The half-life at 1 μM in the data set “in vitro [2]” was found to be 0.275 h. Besides, in data set [3], the “body weight compared with G1 vehicle” value was “significant higher on day 21”, the “Body weight D0” value is on record as 18.11 g, the “Body weight D3” value is listed as 17.90 g and the “Body weight D7” value was determined as 18.56 g. Moreover, in data set [3], the “Body weight D10” value was 19.59 g, the “Body weight D14” value is recorded as 19.85 g, the “Body weight D17” value came out at 20.49 g and the “Body weight D21” value was 20.80 g. In addition, the half-life at 1 μM in “in vitro [4]” worked out at 7.7 h.
As to `[2H]C(F)(F)c1cc2cnc(NC3CCN(S(C)(=O)=O)CC3)nc2n([C@@H]2CCC[C@@]2(C)O)c1=O` [Comp. 28, (−)-6-(difluoromethyl-d)-8-((1R,2R)-2-hydroxy-2-methylcyclopentyl)-2-((1-(methylsulfonyl)piperidin-4-yl)amino)pyrido[2,3-d]pyrimidin-7(8H)-one], the half-life at 1 μM in “in vitro [2]” was 3.03 h. In addition, in data set [3], the “body weight compared with G1 vehicle” value is “significant lower on day 17”, the “Body weight D0” value amounted to 17.93 g, the “Body weight D3” value is reported as 17.81 g and the “Body weight D7” value is given as 17.78 g. Besides, in data set [3], the “Body weight D10” value was found to be 17.66 g, the “Body weight D14” value was 17.75 g, the “Body weight D17” value was found to be 17.84 g and the “Body weight D21” value was 16.80 g. The molecule further had a half-life at 1 μM in “in vitro [4]” of 14.4 h.
For `C[C@@]1(O)CCC[C@H]1n1c(=O)c(C(F)F)cc2cnc(NC3CCN(S(C)(=O)=O)CC3)nc21` [Comp. 5, (−)-6-(difluoromethyl)-8-((1R,2R)-2-hydroxy-2-methylcyclopentyl)-2-((1-(methylsulfonyl)piperidin-4-yl)amino)pyrido[2,3-d]pyrimidin-7(8H)-one, reference compound], in data set [1] (iv, i.v. 5 mg/kg), the AUC(0-t) is 1360 ng·h/mL, the C0 was found to be 5020 ng/mL, the clearance is 61.2 mL/min/kg and the half-life was 0.367 h. Moreover, the Vd in data set [1] (iv, i.v. 5 mg/kg) is 1 L/kg. Further, in data set [1] (po, i.g. 30 mg/kg), the AUC(0-t) turned out to be 1190 ng·h/mL, the Cmax was determined as 1040 ng/mL, the Tmax is 0.25 h and the half-life was 2.76 h. In addition, in data set [1] (po, i.g. 30 mg/kg), the bioavailability was 14.6%. The molecule further gave a half-life at 1 μM in the data set “in vitro [2]” of 0.367 h. For the same molecule, in data set [3], the “Body weight D0” value turned out to be 18.43 g, the “Body weight D3” value was determined as 18.07 g, the “Body weight D7” value is given as 18.12 g and the “Body weight D10” value came to 17.82 g. Moreover, in data set [3], the “Body weight D14” value was 18.25 g, the “Body weight D17” value was found to be 18.48 g and the “Body weight D21” value is 17.80 g. In the data set “in vitro [4]”, this molecule returned a half-life at 1 μM of 33.3 h.
